Assay results: patent US20190124918A1, “BIOFILM FORMATION INHIBITOR AND BIOFILM FORMATION INHIBITING COMPOSITION” (KAO CORPORATION, priority 2016, published 2019)

Test system: biofilm-forming microbe isolated from cooling water taken from a water cooling tower
Experiment: Biofilm inhibition test, quinone-based compound and chelating agent (OD570)
Type: cell-based
Experimental: A biofilm-forming microbe (microbe showing a OD570 value of 0.3 or more in the test for determining the amount of biofilm (the following section 2-4)) isolated from cooling water taken from a water cooling tower was cultured in R2A culture medium at 30° C. for 16 hours while shaking. The turbidity (OD600) of the resultant culture solution was measured. The culture solution was diluted with R2A culture medium to prepare a suspension of 10^3 cfu/mL.
Predetermined amounts of p-toluquinone and HEDP were weighed and solvent (MDG) was added to prepare a composition. Since citric acid and EDTA were not dissolved in MDG, they were directly added in culture solutions; at the same time, p-toluquinone was directly added to the culture solutions.
The suspension of a test microbe prepared in the above section 2-1) was added in individual wells of a 96 well microplate in an amount of 150 μL, and then, the test solutions prepared in the above section 2-2) was each added and culture was initiated.
After the 96 well microplate was subjected to stationary culture performed at 30° C. for 48 hours, the culture solution was removed and the resultant microplate was washed with water. Subsequently, each well was stained with 0.1% crystal violet and 200 μL of ethanol was added. The absorbance (OD570) was measured to obtain the amount of biofilm (BF) formed.

CC1=CC(=O)C=CC1=O [Compound a, p-Toluquinone]
BF inhibitory effect of combined use of HEDP and p-toluquinone compared with p-toluquinone alone (Experiment No. 2 compared to Nos. 5 to 8): higher | OD570 (Experiment No. 12: Toluquinone 5 ppm, Citric acid 0 ppm, 0 ppm/0 ppm gave 0.329): 0.236 | BF inhibitory effect of combined use of citric acid and p-toluquinone compared with p-toluquinone alone (Experiment No. 12 compared to Nos. 15 to 18): higher | OD570 (Experiment No. 13: Toluquinone 10 ppm, Citric acid 0 ppm, 0 ppm/0 ppm gave 0.329): 0.048 | OD570 (Experiment No. 14: Toluquinone 20 ppm, Citric acid 0 ppm, 0 ppm/0 ppm gave 0.329): 0.051 | OD570 (Experiment No. 15: Toluquinone 5 ppm, Citric acid 0.5 ppm, 0 ppm/0 ppm gave 0.329): 0.057 | OD570 (Experiment No. 16: Toluquinone 5 ppm, Citric acid 2.5 ppm, 0 ppm/0 ppm gave 0.329): 0.054 | OD570 (Experiment No. 17: Toluquinone 5 ppm, Citric acid 5 ppm, 0 ppm/0 ppm gave 0.329): 0.054 | OD570 (Experiment No. 18: Toluquinone 5 ppm, Citric acid 10 ppm, 0 ppm/0 ppm gave 0.329): 0.053 | OD570 (Experiment No. 21: Tuluquinone 5 ppm, EDTA 0 ppm, 0 ppm/0 ppm gave 0.407): 0.358 | BF inhibitory effect of combined use of EDTA and p-toluquinone compared with p-toluquinone alone (Experiment No. 21 compared to Nos. 24 to 26): higher | OD570 (Experiment No. 22: Tuluquinone 10 ppm, EDTA 0 ppm, 0 ppm/0 ppm gave 0.407): 0.048 | OD570 (Experiment No. 23: Tuluquinone 20 ppm, EDTA 0 ppm, 0 ppm/0 ppm gave 0.407): 0.051 | OD570 (Experiment No. 24: Tuluquinone 5 ppm, EDTA 2.5 ppm, 0 ppm/0 ppm gave 0.407): 0.151 | OD570 (Experiment No. 25: Tuluquinone 5 ppm, EDTA 5 ppm, 0 ppm/0 ppm gave 0.407): 0.077 | OD570 (Experiment No. 26: Tuluquinone 5 ppm, EDTA 10 ppm, 0 ppm/0 ppm gave 0.407): 0.078
